The record followed here is patent publication US6828339B2, “Amlodipine salt forms and processes for preparing them” (Synthon BV, priority 2001, dated 2004).

Assay type in all cases: physicochemical
The nature of data set [1]: Stability in solid state and in solution.
A short description of another data set: Light sensitivity. Particulars: compared with known anhydrate.
Data set [2] can be described thus: Annealing of the dihydrate, form checked by IR. As to the method:
1(d). A sample from example 1(a) was annealed for 10 minutes at 90° C. while another sample of the same product was annealed for 30 minutes at 145° C. […] The IR for the sample annealed for 10 minutes is as shown in FIG. 4 and the IR for the sample annealed for 30 minutes is as shown in FIG. 5.

The nature of data set [3]: Weight loss on drying in a vacuum oven. The note with it: vacuum oven at 40° C. for 65 hours. As to the method: 1(b). 735.1 mg of the product of example 1(a) was dried in a vacuum oven at 40° C. for 65 hours. The weight loss was 0.043 g or 5.85%, which corresponds to 1.9 moles of water per mole of amlodipine.
The nature of data set [4]: Weight gain of dried (anhydrate) salt form on exposure to air. Particulars: exposed to air. The source says: 1(c). A sample of the anhydrate formed in example 1(b) was exposed to air and the weight gain recorded as follows: […]
Setting [5] is: compared with known prior art anhydrate.

Turning to amlodipine besylate monohydrate, in data set [1] (setting [5]), the “stability in solid state” value is “equivalent to the known prior art amlodipine besylate anhydrate form” and the stability in solution entry is reported as “equivalent to the known prior art amlodipine besylate anhydrate form”. For the same molecule, the “stability of hydrate form” value in data set [1] (monohydrate compared with dihydrate, conversion by heating) was “more stable than the dihydrate form”. For the same molecule, the light sensitivity entry in the data set “Light sensitivity” is “slightly less in comparison to the known anhydrate”.

For “amlodipine besylate dihydrate [example 1(a)]”, the “form after annealing (IR)” value in data set [2] (annealed for 10 minutes at 90° C.) and in data set [2] (annealed for 30 minutes at 145° C.) was “converted to the known anhydrate form” each time. Further, the “moles of water per mole of amlodipine lost” value in data set [3] worked out at 1.9 mol.

`CCOC(=O)C1=C(COCCN)NC(C)=C(C(=O)OC)C1c1ccccc1Cl.O=S(=O)(O)c1ccccc1` (centres unmarked) [example 1(b)]: in data set [4] (21 hour), the “moles of water taken up for one mole of amlodipine” value is recorded as “two”. In data set [4] (weight at start 103.1 mg), the “Weight after 30 min” value was determined as 105.7 mg, the “Weight after 1 hour” value turned out to be 107.3 mg, the “Weight after 3.5 hour” value is reported as 109.3 mg and the “Weight after 21 hour” value is given as 109.3 mg.

On to `CCOC(=O)C1=C(COCCN)NC(C)=C(C(=O)OC)C1c1ccccc1Cl.O=S(=O)(O)c1ccccc1` (centres unmarked) [example 2(a)], for which the “mole of water taken up for one mole of amlodipine” value in data set [4] (21 hour) is “one”. In data set [4] (weight at start 318.6 mg), the “Weight after 30 min” value is 320.3 mg, the “Weight after 1 hour” value amounted to 323.9 mg, the “Weight after 3.5 hour” value is 328.2 mg and the “Weight after 21 hour” value is recorded as 328.2 mg.
